From US10125118B2, “Heteroaryl compounds and their use as therapeutic drugs” (Dong-A Socio Holdings Co., Ltd., priority 2015, dated 2018)

Key:
[1] = target: human c-MER catalytic domain (Homo sapiens (Human), UniProt Q12866); assay: LanthaScreen TR-FRET kinase assay, c-MER; settings: read-out: Mer TK inhibition (IC50); Biochemical IC50, TR-FRET, 10 uM ATP
[2] = system: CD8-MerTK in Ba/F3-CDM cells; assay: In cell MER kinase assay, Ba/F3-CDM cell proliferation without IL-3 (Celltiter-Glo); format: cell-based, murine; settings: 48 hours compound treatment, read-out: Cell growth inhibition (GI50)
Method in brief: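 Ba/F3 cells, IL-3-dependent, transfected with CD8-MerTK and grown without IL-3 in DMEM/10% FBS. IL-3-supplemented Ba/F3 cells run in parallel as a cytotoxicity control.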

Chain of human c-MER catalytic domain (Q12866 587-858): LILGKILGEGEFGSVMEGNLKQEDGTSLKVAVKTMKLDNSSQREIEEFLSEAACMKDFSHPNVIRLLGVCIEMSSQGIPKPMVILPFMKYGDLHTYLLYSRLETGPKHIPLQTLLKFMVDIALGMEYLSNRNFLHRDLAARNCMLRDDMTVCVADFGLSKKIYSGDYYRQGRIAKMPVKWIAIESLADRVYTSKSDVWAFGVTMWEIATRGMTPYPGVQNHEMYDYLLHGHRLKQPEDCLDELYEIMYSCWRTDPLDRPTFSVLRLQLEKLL

Structure (SMILES) | IC50 [1] [nM] | GI50 [2] [nM]
C[C@H](c1ccc(-c2ccc(CO[C@H]3CCC[C@@H]3NC(=O)c3cc(-c4ccc(F)nc4)cnc3N)cc2)cc1)N1CCN(CCO)CC1 [Example 227, 6-amino-6′-fluoro-N-((1S,2S)-2-((4′-((R)-1-(4-(2-hydroxyethyl)-piperazin-1-yl)ethyl)-[1,1′-biphenyl]-4-yl)methoxy)cyclopentyl)-[3,3′-bipyridine]-5-carboxamide] | < 10 | < 100
Nc1ncc(-c2ccc(F)nc2)cc1C(=O)N[C@H]1CCC[C@@H]1OCc1ccc(-c2ccc(C3(N4CCN(CCO)CC4)CC3)cc2)cc1 [Example 228] | < 10 | 100 to 500
CC(c1ccc(-c2ccc(CO[C@H]3CCC[C@@H]3NC(=O)c3cc(-c4cncc(F)c4)cnc3N)cc2)cc1)N1CCN(C)CC1 (stereo partly drawn) [Example 230, 6-amino-5′-fluoro-N-((1S,2S)-2-((4′-(1-(4-methylpiperazin-1-yl)ethyl)-[1,1′-biphenyl]-4-yl)methoxy)cyclopentyl)-[3,3′-bipyridine]-5-carboxamide] | < 10 | < 100
CC(c1ccc(-c2ccc(CO[C@H]3CCC[C@@H]3NC(=O)c3cc(F)cnc3N)cc2)cc1)N1CCN(C)CC1 (stereo partly drawn) [Example 232, 2-amino-5-fluoro-N-((1S,2S)-2-((4′-(1-(4-methylpiperazin-1-yl)-ethyl)-[1,1′-biphenyl]-4-yl)methoxy)cyclopentyl)nicotinamide] | < 10 | 500 to 1000
CC(c1ccc(-c2ccc(CO[C@H]3CCC[C@@H]3NC(=O)c3cc(C#N)cnc3N)cc2)cc1)N1CCN(C)CC1 (stereo partly drawn) [Example 233, 2-amino-5-cyano-N-((1S,2S)-2-((4′-(1-(4-methylpiperazin-1-yl)-ethyl)-[1,1′-biphenyl]-4-yl)methoxy)cyclopentyl)nicotinamide] | < 10 | 100 to 500
CC(c1ccc(-c2ccc(CO[C@H]3CCC[C@@H]3NC(=O)c3cccnc3N)cc2)cc1)N1CCN(C)CC1 (stereo partly drawn) [Example 235, 2-amino-N-((1S,2S)-2-((4′-(1-(4-methylpiperazin-1-yl)ethyl)-[1,1′-biphenyl]-4-yl)methoxy)cyclopentyl)nicotinamide] | < 10 | 500 to 1000
CC(c1ccc(-c2ccc(CO[C@H]3CCC[C@@H]3NC(=O)c3cc(-c4cncc(F)c4)cnc3N)cc2)cc1)N1CCN(CCO)CC1 (stereo partly drawn) [Example 236, 6-amino-5′-fluoro-N-((1S,2S)-2-((4′-(1-(4-(2-hydroxyethyl)-piperazin-1-yl)ethyl)-[1,1′-biphenyl]-4-yl)methoxy)cyclopentyl)-[3,3′-bipyridine]-5-carboxamide] | < 10 | < 100
CC(c1ccc(-c2ccc(CO[C@H]3CCC[C@@H]3NC(=O)c3cc(-c4ccc(F)nc4)cnc3N)cc2)cc1)N1CCN(CCO)CC1 (stereo partly drawn) [Example 237, 6-amino-6′-fluoro-N-((1S,2S)-2-((4′-(1-(4-(2-hydroxyethyl)-piperazin-1-yl)ethyl)-[1,1′-biphenyl]-4-yl)methoxy)cyclopentyl)-[3,3′-bipyridine]-5-carboxamide] | < 10 | < 100
CC(c1ccc(-c2ccc(CO[C@H]3CCC[C@@H]3NC(=O)c3cc(-c4cccnc4F)cnc3N)cc2)cc1)N1CCN(CCO)CC1 (stereo partly drawn) [Example 238, 6-amino-2′-fluoro-N-((1S,2S)-2-((4′-(1-(4-(2-hydroxyethyl)-piperazin-1-yl)ethyl)-[1,1′-biphenyl]-4-yl)methoxy)cyclopentyl)-[3,3′-bipyridine]-5-carboxamide] | < 10 | < 100
CN1CCC(Cc2ccc(-c3ccc(CO[C@H]4CCC[C@@H]4NC(=O)c4cc(-c5cnn(C)c5)cnc4N)cc3)cc2)CC1 [Example 239, 2-amino-5-(1-methyl-1H-pyrazol-4-yl)-N-((1S,2S)-2-((4′-((1-methylpiperidin-4-yl)methyl)-[1,1′-biphenyl]-4-yl)methoxy)cyclopentyl)nicotinamide] | < 10 | < 100
Cn1cc(-c2cnc(N)c(C(=O)N[C@H]3CCC[C@@H]3OCc3ccc(-c4ccc(CC5CCN(CCO)CC5)cc4)cc3)c2)cn1 [Example 240, 2-amino-N-((1S,2S)-2-((4′-((1-(2-hydroxyethyl)piperidin-4-yl)-methyl)-[1,1′-biphenyl]-4-yl)methoxy)cyclopentyl)-5-(1-methyl-1H-pyrazol-4-yl)-nicotinamide] | < 10 | < 100
COC(=O)CN1CCC(Cc2ccc(-c3ccc(CO[C@H]4CCC[C@@H]4NC(=O)c4cc(-c5cnn(C)c5)cnc4N)cc3)cc2)CC1 [Example 241, Methyl 2-(4-((4′-((((1S,2S)-2-(2-amino-5-(1-methyl-1H-pyrazol-4-yl)nicotinamido)cyclopentyl)oxy)methyl)-[1,1′-biphenyl]-4-yl)methyl)piperidin-1-yl)-acetate] | < 10 | 500 to 1000
Cn1cc(-c2cnc(N)c(C(=O)N[C@H]3CCC[C@@H]3OCc3ccc(-c4ccc(CC5CCN(CC(N)=O)CC5)cc4)cc3)c2)cn1 [Example 242, 2-amino-N-((1S,2S)-2-((4′-((1-(2-amino-2-oxoethyl)piperidin-4-yl)methyl)-[1,1′-biphenyl]-4-yl)methoxy)cyclopentyl)-5-(1-methyl-1H-pyrazol-4-yl)-nicotinamide] | < 10 | < 100
CN(C)CCCOc1ccc(-c2ccc(CO[C@H]3CCC[C@@H]3NC(=O)c3cc(-c4cnn(C)c4)cnc3N)cc2)cc1 [Example 246, 2-amino-N-((1S,2S)-2-((4′-(3-(dimethylamino)propoxy)-[1,1′-biphenyl]-4-yl)methoxy)cyclopentyl)-5-(1-methyl-M-pyrazol-4-yl)nicotinamide] | < 10 | 100 to 500
CN1CCC(Oc2ccc(-c3ccc(CO[C@H]4CCC[C@@H]4NC(=O)c4cc(-c5cnn(C)c5)cnc4N)cc3)cc2)CC1 [Example 247, 2-amino-5-(1-methyl-1H-pyrazol-4-yl)-N-((1S,2S)-2-((4′-((1-methylpiperidin-4-yl)oxy)-[1,1′-biphenyl]-4-yl)methoxy)cyclopentyl)nicotinamide] | < 10 | 100 to 500
Cn1cc(-c2cnc(N)c(C(=O)N[C@H]3CCC[C@@H]3OCc3ccc(C#CCCO)cc3)c2)cn1 [Example 249, 2-amino-N-((1S,2S)-2-((4-(4-hydroxybut-1-yn-1-yl)benzyl)oxy)-cyclopentyl)-5-(1-methyl-1H-pyrazol-4-yl)nicotinamide] | < 10 | > 1000
Cn1cc(-c2cnc(N)c(C(=O)N[C@H]3CCC[C@@H]3OCc3ccc(C#CCCCO)cc3)c2)cn1 [Example 250, 2-amino-N-((1S,2S)-2-((4-(5-hydroxypent-1-yn-1-yl)-benzyl)oxy)-cyclopentyl)-5-(1-methyl-1H-pyrazol-4-yl)nicotinamide] | < 10 | 100 to 500
Cn1cc(-c2cnc(N)c(C(=O)N[C@H]3CCC[C@@H]3OCc3ccc(C#CCCCCO)cc3)c2)cn1 [Example 251, 2-amino-N-((1S,2S)-2-((4-(6-hydroxyhex-1-yn-1-yl)benzyl)oxy)-cyclopentyl)-5-(1-methyl-1H-pyrazol-4-yl)nicotinamide] | < 10 | > 1000
Cc1ccc(CO[C@H]2CCC[C@@H]2NC(=O)c2cc(-c3ccc(C(=O)NC4CCN(C)CC4)cc3)cnc2N)cc1C [Example 318, 2-amino-N-((1S,2S)-2-((3,4-dimethylbenzyl)oxy)cyclopentyl)-5-(4-((1-methylpiperidin-4-yl)carbamoyl)phenyl)nicotinamide] | < 10 | 500 to 1000
Cc1ccc(CO[C@H]2CCC[C@@H]2NC(=O)c2cc(-c3ccc(CN4CCC(N5CCCC5)CC4)c(F)c3)cnc2N)cc1C [Example 325, 2-amino-N-((1S,2S)-2-((3,4-dimethylbenzyl)oxy)cyclopentyl)-5-(3-fluoro-4-((4-(pyrrolidin-1-yl)piperidin-1-yl)methyl)phenyl)nicotinamide] | < 10 | > 1000
Cc1ccc(CO[C@H]2CCC[C@@H]2NC(=O)c2cc(-c3ccc(CN4CCC(O)CC4)cc3)cnc2N)cc1C [Example 328, 2-amino-N-((1S,2S)-2-((3,4-dimethylbenzyl)oxy)cyclopentyl)-5-(4-((4-hydroxypiperidin-1-yl)methyl)phenyl)nicotinamide] | < 10 | 500 to 1000
Cc1ccc(CO[C@H]2CCC[C@@H]2NC(=O)c2cc(-c3ccc(CN4CCC(N5CCOCC5)C4)cc3)cnc2N)cc1C (stereo partly drawn) [Example 337, 2-amino-N-((1S,2S)-2-((3,4-dimethylbenzyl)oxy)cyclopentyl)-5-(4-((3-morpholinopyrrolidin-1-yl)methyl)phenyl)nicotinamide] | < 10 | 500 to 1000
CCc1cc(CO[C@H]2CCC[C@@H]2NC(=O)c2cc(-c3ccc(C(C)(C)N4CCN(CCO)CC4)cc3)cnc2N)ccc1C [Example 360, 2-amino-N-((1S,2S)-2-((3-ethyl-4-methylbenzyl)oxy)cyclopentyl)-5-(4-(2-(4-(2-hydroxyethyl)piperazin-1-yl)propan-2-yl)phenyl)nicotinamide] | < 10 | > 1000
CN1CCN(Cc2ccc(-c3ccc(CO[C@H]4CCC[C@@H]4NC(=O)c4cc(-c5ccc(F)cc5)cnc4N)cc3)cc2)CC1 [Example 363, 2-amino-5-(4-fluorophenyl)-N-((1S,2S)-2-((4′-((4-methylpiperazin-1-yl)methyl)-[1,1′-biphenyl]-4-yl)methoxy)cyclopentyl)nicotinamide] | < 10 | 100 to 500
CN1CCN(Cc2ccc(-c3ccc(CO[C@H]4CCC[C@@H]4NC(=O)c4cc(-c5ccc(F)c(F)c5)cnc4N)cc3)cc2)CC1 [Example 364] | < 10 | < 100
CN1CCC(n2cc(-c3cnc(N)c(C(=O)N[C@H]4CCC[C@@H]4OCc4ccc(-c5ccc(CN6CCN(C)CC6)cc5)cc4)c3)cn2)CC1 [Example 366, 2-amino-N-((1S,2S)-2-((4′-((4-methylpiperazin-1-yl)methyl)-[1,1′-biphenyl]-4-yl)methoxy)cyclopentyl)-5-(1-(1-methylpiperidin-4-yl)-1H-pyrazol-4-yl)nicotinamide] | < 10 | < 100
